In US20050196753A1, “Human coactivator-associated arginine methyltransferase 1 (hCARM1)” (priority 2002, published 2005):

Target: T1, hCARM1 (Homo sapiens, UniProt Q86X55)
T1 construct: evaluate whether the cloned full-length hCARM1 had methylating activity; made in house; host or cells: baculovirus infected insect cells
T1 sequence (Q86X55 1-608): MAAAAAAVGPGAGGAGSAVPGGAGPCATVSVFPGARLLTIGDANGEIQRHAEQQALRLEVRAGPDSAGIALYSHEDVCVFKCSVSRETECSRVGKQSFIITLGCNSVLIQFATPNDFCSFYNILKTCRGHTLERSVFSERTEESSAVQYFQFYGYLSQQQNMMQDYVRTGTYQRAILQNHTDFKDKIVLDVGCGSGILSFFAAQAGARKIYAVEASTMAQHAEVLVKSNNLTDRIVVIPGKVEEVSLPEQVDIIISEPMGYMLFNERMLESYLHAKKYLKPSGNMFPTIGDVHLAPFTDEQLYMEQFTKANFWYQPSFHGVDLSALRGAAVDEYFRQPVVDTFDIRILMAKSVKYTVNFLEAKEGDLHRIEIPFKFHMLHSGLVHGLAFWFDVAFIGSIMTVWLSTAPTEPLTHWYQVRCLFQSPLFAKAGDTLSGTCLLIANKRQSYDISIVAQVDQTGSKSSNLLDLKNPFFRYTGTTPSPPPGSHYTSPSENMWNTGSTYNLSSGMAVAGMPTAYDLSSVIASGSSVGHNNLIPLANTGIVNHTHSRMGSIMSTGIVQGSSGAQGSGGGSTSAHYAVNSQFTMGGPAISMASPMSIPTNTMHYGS
Experiment: Methylation assay: inhibition of hCARM1 mediated methylation of Histone H3
Type: biochemical
Settings: Histone H3 substrate, 30° C. for 1 hr, SDS-PAGE/film
Experimental: Methylation assay protocol: Reactions were performed in IX methylation buffer containing 20 mM Tris.HCl, pH 8.0, 200 mM NaCl and 0.4 mM EDTA. Reactions were assembled with 2.5 ug of Histone H3 and increasing amounts of hCARM1 (0.25 ug, 0.5 ug, 1.25 ug, 2.5 ug, 3.75 ug, 5 ug, or 7.5 ug). A mock reaction where hCARM1 was omitted was used as the negative control. Reactions were incubated at 30° C. for 1 hr. prior to loading on a 10-20% gradient SDS-PAGE. The gel was fixed, dried and exposed to film.
A methylation reaction was performed in order to evaluate whether the cloned full-length hCARM1 had methylating activity. Mouse CARM1 has been previously shown to specifically methylate Histone H3 in vitro and in vivo.

inhibition of hCARM1 mediated methylation: effectively inhibited
SMILES: N[C@@H](CCS)C(=O)O [homocysteine]
